Experimental data taken from publication PMC11865548 (Nature Communications, 2025).

What was measured:
MexL [1] = molecular target: T1, MexL (Pseudomonas aeruginosa, UniProt Q9HXW2); assay: thermal shift; assay type: biochemical
T1 sequence (Q9HXW2 1-212): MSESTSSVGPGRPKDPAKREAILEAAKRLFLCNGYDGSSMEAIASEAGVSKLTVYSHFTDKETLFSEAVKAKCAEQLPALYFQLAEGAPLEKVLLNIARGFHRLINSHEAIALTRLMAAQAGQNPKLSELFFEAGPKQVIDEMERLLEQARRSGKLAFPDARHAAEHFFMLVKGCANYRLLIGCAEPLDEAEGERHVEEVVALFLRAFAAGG

MexL [2] = molecular target: T1, MexL; assay: BLI; assay type: binding

Row | Structure (SMILES) | thermal shift (Tm decrease) and EMSA interference with DNA binding (MexL [1]) | Kd (MexL [2]) [µM]
1 | CN(C)[C@@H]1C(O)=C(C(N)=O)C(=O)[C@@]2(O)C(O)=C3C(=O)c4c(O)cccc4[C@@](C)(O)[C@H]3C[C@@H]12 [TET, tetracycline] | both TET and TCS also significantly reduce the Tm values of MexL (Fig. 6b), indicating their interaction with MexL | 
2 | Cn1c2cccc(=O)c-2nc2ccccc21 [PYO, pyocyanin] |  | 84.2 ± 1.8
3 | Oc1cc(Cl)ccc1Oc1ccc(Cl)cc1Cl [TCS, triclosan] | these two antimicrobials both can interfere with the DNA-binding activity of MexL in EMSA | 
